According to patent US8148391B2 (Cephalon, Inc., priority 2006, dated 2012):
pIC50: −log10 of the molar value. Where two headings read alike, the source gives them in different places.

Experiments:
[1] = molecular target: T1, baculovirus-expressed ALK (Homo sapiens, UniProt Q9UM73); test: ALK Kinase Assay (ELISA-type, time-resolved fluorescence); assay type: biochemical
T1 construct: host or cells: baculovirus expression system
Procedure, shortened: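 Substrate coating: phospholipase C-γ, 10 μg/mL in TBS. Kinase step: 30 ng/ml ALK, 15 min, 37° C. Detection and analysis: Eu-N1 PT66 antibody, with IC50 fitted as a sigmoidal variable-slope dose-response curve.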

[2] = molecular target: T2, c-Met (cytoplasmic domain) (Homo sapiens, UniProt P08581); test: c-Met Kinase Assay (same methods as for ALK, with modifications); assay type: biochemical
T2 construct: 10 ng/mL c-Met (cytoplasmic domain, Invitrogen Corporation #PV3143); purchased Invitrogen Corporation PV3143
T2 sequence (P08581 956-1390 limits assumed): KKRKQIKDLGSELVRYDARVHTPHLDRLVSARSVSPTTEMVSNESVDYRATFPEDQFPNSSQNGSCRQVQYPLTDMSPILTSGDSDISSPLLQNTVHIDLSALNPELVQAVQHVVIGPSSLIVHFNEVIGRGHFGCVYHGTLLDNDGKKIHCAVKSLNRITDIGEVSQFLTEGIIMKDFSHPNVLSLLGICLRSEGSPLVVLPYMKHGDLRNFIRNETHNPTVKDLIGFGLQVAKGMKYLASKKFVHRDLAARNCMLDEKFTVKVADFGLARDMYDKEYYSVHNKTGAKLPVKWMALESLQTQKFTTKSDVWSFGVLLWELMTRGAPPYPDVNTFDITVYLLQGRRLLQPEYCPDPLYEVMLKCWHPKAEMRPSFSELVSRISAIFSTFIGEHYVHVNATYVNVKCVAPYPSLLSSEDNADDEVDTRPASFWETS
Procedure, shortened: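 This plate-based kinase format uses immobilized phospholipase C-γ as substrate, phosphorylated by c-Met cytoplasmic domain (10 ng/mL) at 37° C for 15 minutes.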

[3] = ALK kinase inhibition, 1 μM ATP (Km level), read-out: ALK Activity
[4] = c-Met kinase inhibition, 1 μM ATP (Km level), read-out: cMet Activity
[5] = 1 μM ATP (Km level), 30 ng/ml ALK, 37° C., 15 minutes, read-out: ALK Activity (ALK kinase inhibition, IC50 class)
[6] = 1 μM ATP (Km level), 10 ng/mL c-Met, read-out: cMet Activity (c-Met kinase inhibition, IC50 class)
[7] = ALK kinase inhibition, 1 μM ATP, read-out: ALK Activity
[8] = c-Met kinase inhibition, 1 μM ATP, read-out: cMet Activity
[9] = 1 μM ATP (Km level), read-out: ALK Activity (ALK Kinase Inhibition, IC50)
[10] = 1 μM ATP (Km level), read-out: cMet Activity (c-Met Kinase Inhibition, IC50)

T1 sequence (Q9UM73 19-1620): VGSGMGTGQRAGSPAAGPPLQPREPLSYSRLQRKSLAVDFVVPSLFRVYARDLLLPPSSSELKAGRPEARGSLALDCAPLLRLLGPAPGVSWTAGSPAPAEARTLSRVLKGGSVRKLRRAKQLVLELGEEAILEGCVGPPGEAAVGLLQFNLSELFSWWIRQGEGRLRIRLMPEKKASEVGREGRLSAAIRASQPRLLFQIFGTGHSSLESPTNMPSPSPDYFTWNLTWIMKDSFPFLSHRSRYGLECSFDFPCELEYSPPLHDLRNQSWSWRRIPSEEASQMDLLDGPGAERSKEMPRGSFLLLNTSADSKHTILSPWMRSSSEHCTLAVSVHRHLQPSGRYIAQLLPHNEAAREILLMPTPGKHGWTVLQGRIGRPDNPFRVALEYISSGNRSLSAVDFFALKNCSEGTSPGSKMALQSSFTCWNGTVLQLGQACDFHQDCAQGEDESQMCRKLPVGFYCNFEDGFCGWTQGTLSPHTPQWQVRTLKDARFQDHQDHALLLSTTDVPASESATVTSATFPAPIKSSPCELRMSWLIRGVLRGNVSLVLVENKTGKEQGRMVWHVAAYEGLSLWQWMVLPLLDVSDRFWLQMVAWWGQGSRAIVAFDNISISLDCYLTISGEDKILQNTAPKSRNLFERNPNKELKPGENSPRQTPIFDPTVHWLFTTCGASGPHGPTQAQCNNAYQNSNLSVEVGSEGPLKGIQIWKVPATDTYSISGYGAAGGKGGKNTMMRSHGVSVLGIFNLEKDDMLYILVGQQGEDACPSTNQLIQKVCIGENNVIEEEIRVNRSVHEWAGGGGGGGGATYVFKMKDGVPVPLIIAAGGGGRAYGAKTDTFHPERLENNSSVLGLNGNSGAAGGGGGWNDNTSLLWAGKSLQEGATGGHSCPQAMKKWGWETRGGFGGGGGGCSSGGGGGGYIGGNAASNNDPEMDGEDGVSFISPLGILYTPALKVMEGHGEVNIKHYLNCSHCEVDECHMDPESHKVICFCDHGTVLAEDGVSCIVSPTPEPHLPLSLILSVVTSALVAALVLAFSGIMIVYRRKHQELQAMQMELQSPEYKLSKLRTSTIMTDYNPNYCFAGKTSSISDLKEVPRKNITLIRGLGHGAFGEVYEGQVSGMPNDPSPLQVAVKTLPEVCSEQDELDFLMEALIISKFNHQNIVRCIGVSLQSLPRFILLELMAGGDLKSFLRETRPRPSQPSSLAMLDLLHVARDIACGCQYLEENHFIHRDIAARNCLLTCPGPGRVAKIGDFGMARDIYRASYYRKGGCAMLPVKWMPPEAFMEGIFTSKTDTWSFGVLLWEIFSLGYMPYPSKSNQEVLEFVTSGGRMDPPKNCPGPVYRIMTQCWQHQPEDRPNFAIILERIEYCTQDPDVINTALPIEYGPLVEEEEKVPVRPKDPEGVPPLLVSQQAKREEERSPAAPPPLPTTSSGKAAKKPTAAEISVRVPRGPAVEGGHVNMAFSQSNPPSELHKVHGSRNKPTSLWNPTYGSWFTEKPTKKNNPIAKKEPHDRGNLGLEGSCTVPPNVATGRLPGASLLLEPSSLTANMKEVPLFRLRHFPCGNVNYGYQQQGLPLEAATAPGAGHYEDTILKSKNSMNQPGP

| SMILES | pIC50 [1, 3] | pIC50 [2, 4] | pIC50 [1, 7] | pIC50 [2, 8] | also measured |
| --- | --- | --- | --- | --- | --- |
| CNC(=O)c1ccccc1Nc1nc(Nc2ccc3c(c2OC)CCCC(=O)N3C)ncc1Cl [Example 116, 2-[5-Chloro-2-(6-methoxy-1-methyl-2-oxo-2,3,4,5-tetrahydro-1H-benzo[b]azepin-7-ylamino)-pyrimidin-4-ylamino]-N-methyl-benzamide] | > 7.00 | 5.00 to 6.00 | – | – | – |
| COc1cc2c(cc1Nc1ncc(Cl)c(Nc3ccccc3S(=O)(=O)N(C)C)n1)CCNC(=O)C2 [Example 1194, 2-[5-Chloro-2-(8-methoxy-2-oxo-2,3,4,5-tetrahydro-1H-benzo[d]azepin-7-ylamino)-pyrimidin-4-ylamino]-N,N-dimethyl-benzenesulfonamide] | – | – | – | – | pIC50 [1, 5]: > 7.00; pIC50 [2, 6]: 5.00 to 6.00 |
| COCCN1CC(=O)Nc2cc(Nc3ncc(Cl)c(N[C@H]4[C@@H](C(N)=O)[C@@H]5C=C[C@H]4C5)n3)c(OC)cc2C1 [Example 1665, (1S,2S,3R,4R)-3-{5-Chloro-2-[7-methoxy-4-(2-methoxy-ethyl)-2-oxo-2,3,4,5-tetrahydro-1H-benzo[e][1,4]diazepin-8-ylamino]-pyrimidin-4-ylamino}-bicyclo[2.2.1]hept-5-ene-2-carboxylic acid amide] | – | – | > 7.00 | < 5.00 | – |
| COCCN1C(=O)CCCc2c1ccc(Nc1ncc(Cl)c(Nc3ccc(N4CCOCC4)cc3OC)n1)c2OC [Example 127, 7-[5-Chloro-4-(2-methoxy-4-morpholin-4-yl-phenylamino)-pyrimidin-2-ylamino]-6-methoxy-1-(2-methoxy-ethyl)-1,3,4,5-tetrahydro-benzo[b]azepin-2-one] | > 7.00 | < 5.00 | – | – | – |
| CS(=O)(=O)N[C@@H]1CCCC[C@H]1Nc1nc(Nc2ccc3c(c2)CCN(C[C@@H](O)C(F)(F)F)CC3)ncc1Cl [Example 449, N-((1R,2R)-2-{5-Chloro-2-[3-((R)-3,3,3-trifluoro-2-hydroxy-propyl)-2,3,4,5-tetrahydro-1H-benzo[d]azepin-7-ylamino]-pyrimidin-4-ylamino}-cyclohexyl)-methanesulfonamide] | > 7.00 | 6.00 to 7.00 | – | – | – |
| CCN1C(=O)C(NC(=O)C(F)(F)F)CCc2c1ccc(Nc1ncc(Cl)c(Nc3ccccc3S(=O)(=O)N(C)C)n1)c2OC (stereo not shown) [Example 1334, N-{7-[5-Chloro-4-(2-dimethylsulfamoyl-phenylamino)-pyrimidin-2-ylamino]-1-ethyl-6-methoxy-2-oxo-2,3,4,5-tetrahydro-1H-benzo[b]azepin-3-yl}-2,2,2-trifluoro-acetamide] | – | – | – | – | pIC50 [1, 5]: > 7.00; pIC50 [2, 6]: < 5.00 |
| COCCN1CCc2ccc(Nc3ncc(Cl)c(Nc4c(F)cccc4S(=O)(=O)C(C)C)n3)cc2CC1 [Example 1253, 5-Chloro-N(4)-[2-fluoro-6-(propane-2-sulfonyl)-phenyl]-N(2)-[3-(2-methoxy-ethyl)-2,3,4,5-tetrahydro-1H-3-benzazepin-7-yl]-pyrimidine-2,4-diamine] | – | – | – | – | pIC50 [1, 5]: > 7.00; pIC50 [2, 6]: 5.00 to 6.00 |
| C#CCNC(=O)c1cccc(F)c1Nc1nc(Nc2ccc3c(c2)OCCCN3CCN2CCCC2)ncc1Cl [Example 1719, 2-{5-Chloro-2-[9-(2-pyrrolidin-1-yl-ethyl)-6,7,8,9-tetrahydro-5-oxa-9-aza-benzocyclohepten-3-ylamino]-pyrimidin-4-ylamino}-3-fluoro-N-prop-2-ynyl-benzamide] | – | – | > 7.00 | > 7.00 | – |
| COCCN1CCc2ccc(Nc3ncc(Cl)c(N[C@@H]4CCCC[C@H]4NS(=O)(=O)C4CC4)n3)cc2CC1 [Example 454, Cyclopropanesulfonic acid ((1R,2R)-2-{5-chloro-2-[3-(2-methoxy-ethyl)-2,3,4,5-tetrahydro-1H-benzo[d]azepin-7-ylamino]-pyrimidin-4-ylamino}-cyclohexyl)-amide] | 6.00 to 7.00 | 5.00 to 6.00 | – | – | – |
| CCN1CCN(CC)c2cc(Nc3ncc(Cl)c(Nc4ccccc4C(=O)NC)n3)ccc2C1 [Example 419, 2-[5-Chloro-2-(1,4-diethyl-2,3,4,5-tetrahydro-1H-benzo[e][1,4]diazepin-8-ylamino)-pyrimidin-4-ylamino]-N-methylbenzamide] | > 7.00 | > 7.00 | – | – | – |
| COCCNC1CCc2cc(Nc3ncc(Cl)c(Nc4ccccc4S(=O)(=O)C(C)C)n3)c(OC)cc2CC1 (stereo not shown) [Example 1084, 5-Chloro-N*2*-[3-methoxy-7-(2-methoxy-ethylamino)-6,7,8,9-tetrahydro-5H-benzocyclohepten-2-yl]-N*4*-[2-(propane-2-sulfonyl)-phenyl]-pyrimidine-2,4-diamine] | – | – | – | – | pIC50 [1, 5]: > 7.00; pIC50 [2, 6]: 5.00 to 6.00 |
| CCN1C(=O)C(C)(C)CCc2c1ccc(Nc1ncc(Cl)c(NC3C4C=CC(C4)C3C(N)=O)n1)c2OC (stereo not drawn) [Example 142, (2-exo, 3-exo)-3-[5-Chloro-2-(1-ethyl-6-methoxy-3,3-dimethyl-2-oxo-2,3,4,5-tetrahydro-1H-benzo[b]azepin-7-ylamino)-pyrimidin-4-ylamino]-bicyclo[2.2.1]hept-5-ene-2-carboxylic acid amide] | > 7.00 | < 5.00 | – | – | – |
| CCN1CCc2c(Nc3ncc(Cl)c(Nc4ccccc4C(=O)NC)n3)ccc(OC)c2CC1 [Example 154, 2-[5-Chloro-2-(3-ethyl-9-methoxy-2,3,4,5-tetrahydro-1H-benzo[d]azepin-6-ylamino)-pyrimidin-4-ylamino]-N-methyl-benzamide] | 6.00 to 7.00 | < 5.00 | – | – | – |
| CCN1C(=O)CCCc2c1ccc(Nc1ncc(Cl)c(Nc3ccc(OC)cc3-n3cccn3)n1)c2OC [Example 613, 7-[5-Chloro-4-(4-methoxy-2-pyrazol-1-yl-phenylamino)-pyrimidin-2-ylamino]-1-ethyl-6-methoxy-1,3,4,5-tetrahydro-benzo[b]azepin-2-one] | – | – | – | – | pIC50 [1, 9]: > 7.00; pIC50 [2, 10]: < 5.00 |
| C#CCNC(=O)c1cccc(F)c1Nc1nc(Nc2ccc3c(c2)OCCCN3C(=O)CN2CCCC2)ncc1Cl [Example 1716, 2-{5-Chloro-2-[9-(2-pyrrolidin-1-yl-acetyl)-6,7,8,9-tetrahydro-5-oxa-9-aza-benzocyclohepten-3-ylamino]-pyrimidin-4-ylamino}-3-fluoro-N-prop-2-ynyl-benzamide] | – | – | 6.00 to 7.00 | > 7.00 | – |
| CCN1CCN(CC)c2cc(Nc3ncc(Cl)c(N[C@@H]4CCCC[C@H]4NS(C)(=O)=O)n3)c(OC)cc2C1 [Example 1456, N-{(1R,2R)-2-[5-Chloro-2-(1,4-diethyl-7-methoxy-2,3,4,5-tetrahydro-1H-benzo[e][1,4]diazepin-8-ylamino)-pyrimidin-4-ylamino]-cyclohexyl}-methanesulfonamide] | – | – | > 7.00 | < 5.00 | – |
| O=C1CCCc2ccc(Nc3ncc(Cl)c(Nc4ccccc4S(=O)(=O)N4CCC(O)C4)n3)cc2N1 (stereo not shown) [Example 1493, 8-{5-Chloro-4-[2-(3-hydroxy-pyrrolidine-1-sulfonyl)-phenylamino]-pyrimidin-2-ylamino}-1,3,4,5-tetrahydro-benzo[b]azepin-2-one] | – | – | > 7.00 | > 7.00 | – |
| COc1cc(N2CCOCC2)ccc1Nc1nc(Nc2cccc3c2OCCCC3(C)C)ncc1Cl [Example 876, 5-Chloro-N*2*-(5,5-dimethyl-2,3,4,5-tetrahydro-benzo[b]oxepin-9-yl)-N*4*-(2-methoxy-4-morpholin-4-yl-phenyl)-pyrimidine-2,4-diamine] | – | – | – | – | pIC50 [1, 9]: 6.00 to 7.00; pIC50 [2, 10]: < 5.00 |
| COc1cc2c(cc1Nc1ncc(Cl)c(Nc3cccnc3OC)n1)CCN(CC(=O)N(C)C)CC2 [Example 1190, 2-{7-[5-Chloro-4-(2-methoxy-pyridin-3-ylamino)-pyrimidin-2-ylamino]-8-methoxy-1,2,4,5-tetrahydro-benzo[d]azepin-3-yl}-N,N-dimethyl-acetamide] | – | – | – | – | pIC50 [1, 5]: > 7.00; pIC50 [2, 6]: < 5.00 |
| CS(=O)(=O)N[C@@H]1CCCC[C@H]1Nc1nc(Nc2ccc3c(c2)CNCCO3)ncc1Cl [Example 524, N-{(1R,2R)-2[5-Chloro-2-(2,3,4,5-tetrahydro-benzo[f]oxazepin-7-ylamino)-pyrimidin-4-ylamino]-cyclohexyl}-methanesulfonamide] | – | – | – | – | pIC50 [1, 9]: > 7.00; pIC50 [2, 10]: 5.00 to 6.00 |
| CNC(=O)c1ccccc1Nc1nc(Nc2cc3c(cc2OC)CCN(CC(=O)N(C)C)CC3)ncc1Cl [Example 259, 2-[5-Chloro-2-(3-dimethylcarbamoylmethyl-8-methoxy-2,3,4,5-tetrahydro-1H-benzo[d]azepin-7-ylamino)-pyrimidin-4-ylamino]-N-methyl-benzamide] | > 7.00 | 6.00 to 7.00 | – | – | – |
| C#CCNC(=O)c1cccc(F)c1Nc1nc(Nc2ccc3c(c2)N(C(=O)CN(C)C)CCCC3(C)C)ncc1Cl [Example 1631, 2-{5-Chloro-2-[1-(2-dimethylamino-acetyl)-5,5-dimethyl-2,3,4,5-tetrahydro-1H-benzo[b]azepin-8-ylamino]-pyrimidin-4-ylamino}-3-fluoro-N-prop-2-ynyl-benzamide] | – | – | 6.00 to 7.00 | 6.00 to 7.00 | – |
| CNC(=O)c1ccccc1Nc1nc(Nc2ccc3c(c2)CCOC(=O)N3C)ncc1Cl [Example 1741, 2-[5-Chloro-2-(5-methyl-6-oxo-5,6,8,9-tetrahydro-7-oxa-5-aza-benzocyclohepten-2-ylamino)-pyrimidin-4-ylamino]-N-methylbenzamide] | – | – | > 7.00 | > 7.00 | – |
